Measured values published in US20020107245A1, “Method for treating fibrotic diseases or other indications IVC” (priority 2000, published 2002).
Where a name gives a salt, the structure may show the parent alone.

Key:
dog model for diabetes = assay: Dog model for diabetes, indicators of ventricular elasticity; format: in vivo
Text: (§1) Cardiovascular risk correlates more closely with the systolic and the pulse pressure than with the diastolic pressure. In diabetic patients, the cardiovascular risk profile of diabetic patients is strongly correlated to duration of diabetes, glycemic control and blood pressure. Structural matrix proteins contribute to the function of vessels and the heart, and changes in the physical behavior of cardiovascular walls are believed to be important determinants of circulatory function. In elderly individuals, the loss of compliance in the aorta leads to isolated systolic hypertension, which in turn expands the arterial wall and thereby diminishes the dynamic range of elasticity. […] Treatment with 3-[2-phenyl-2-oxoethyl]-4,5-dimethyl-thiazolium salt lead to a reduction in the mass of collagen in cardiovascular tissues.

Rats = assay: Rat left anterior descending coronary artery ligation, histological examination of hearts; format: in vivo; details: 10 mg/kg daily intraperitoneal for 30 days before ligation and 14 days after
Method: Rats received a daily intraperitoneal dose of 10 mg/kg 3-[2-phenyl-2-oxoethyl]-4,5-dimethyl-thiazolium salt (compound A) (n=14) or placebo (n=15) for 30 days. The animals then underwent a thoracotomy and the left anterior descending coronary artery ligated. The chest was then closed and the animals allowed to recover for 14 days while continuing to be treated with compound A or placebo. The animals were then sacrificed and the hearts removed for histological examination. The weight of the infarcted tissue was 0.16±0.04 g for the placebo treated animals compared to 0.11±0.05 g for the compound A treated animals (p=0.04).

[1] = test system: elderly patients with pulse pressures greater than 60 mm Hg; assay: Phase Ia clinical trial; format: in vivo, human
Text: When the heart pumps blood into the vascular system, the ability of the arteries to expand helps to push blood through the body. When arteries become stiff, as they do in the natural process of aging, the ability of the arteries to expand is diminished and also has consequences for the heart. The heart has to work harder to pump the blood into the stiff arteries, and eventually hypertrophies (enlarges in size) to accomplish this. A hypertrophied heart is an inefficient pump, and is one of the disorders that leads to congestive heart failure. […] The potential clinical benefit of this is to lessen the effort that the heart must expend to push blood throughout the body. The effect is also believed to contribute to preventing hypertrophy and subsequent inefficiency of the heart, which inefficiency would contribute to congestive heart failure.
Atherosclerosis is a disease that involves deposition of blood lipids in plaque in the arteries throughout the body. In coronary arteries, accumulation of plaque progressively leads to reduced coronary flow, with occlusion of the arteries causing focal death of cardiac tissue (myocardial infarction, heart attack). If the amount of tissue that dies is large enough, death ensures. […]

TGFbeta = assay: In situ hybridization studies
Text: as §1

Type IV collagen = assay: In situ hybridization studies
Text: as §1

[2] = test system: rodents, canines and primates; assay: In vivo studies of vascular stiffening and collagen mass in cardiovascular tissues
Text: as §1

Compound: Cc1sc[n+](CC(=O)c2ccccc2)c1C [compound A, 3-[2-phenyl-2-oxoethyl]-4,5-dimethyl-thiazolium salt]
- end diastolic pressure (dog model for diabetes): returned to a value at about the mid-point between the disease impaired value and the value for control dogs
- end diastolic volume (dog model for diabetes): returned to a value at about the mid-point between the disease impaired value and the value for control dogs
- thickness of the ventricular wall in the infarcted zone (Rats): 2.56±0.22 mm
- weight of the infarcted tissue (Rats): 0.11 ± 0.05 g
- stiffness of arteries, as measured by the ratio of stroke volume (ml) to pulse pressure (mm Hg) ([1]; Phase Ia clinical trial): showed an ability to reverse the stiffness of arteries
- pulse pressure ([1]; Phase Ia trial, elderly patients with pulse pressures greater than 60 mm Hg): reduced
- expression of TGFbeta (TGFbeta): reduces
- expression of Type IV collagen (Type IV collagen): reduces
- mass of collagen in cardiovascular tissues ([2]; in vivo): reduction
- vascular stiffening ([2]; in vivo studies in rodents, canines and primates): substantially ameliorating vascular stiffening
